The text below walks through data of US12521393B2, “Cytotoxicity targeting chimeras for CCR2-expressing cells” (GLAXOSMITHKLINE INTELLECTUAL PROPERTY DEVELOPMENT LIMITED, priority 2021, dated 2026).

Structures can show the parent of a compound that is named as a salt.

In assay [1] the target is human alpha1 nicotinic acetylcholine (nACh) receptor (Homo sapiens, UniProt P02708). Put plainly: Nicotinic acetylcholine receptor antagonism assay, IONFlux automated patch clamp (Example 203). Format: cell-based. The procedure:
Cells expressing human alpha1 nicotinic acetylcholine (nACh) receptor (nAChR) were washed and dissociated using Trypsin containing buffer. Cells were then washed and seeded at a density of 3-5 million cells/mL and allowed to grow for 3 days. Then, 60-80 μL of cells were added to plates and incubated with dose response of an ARM compound of Formula (I) with a top concentration of either 10 μM or 100 μM. The receptor was then stimulated via addition of acetylcholine (ACh) and activation of the receptor was monitored via the IONFlux automated patch clamp system. IonFlux Data Analyzer software was utilized to perform leak subtraction and measure (min) peak current amplitude.
Data processing: (1) Current values recorded for vehicle only applications in individual traps/patterns were subtracted from corresponding current amplitude values for control, test article and control+test article. (2) Control response was calculated as % of the average response of the 3rd out of total 3 ACh (10 mM) applications alone. In rare situations, if the 3rd ACh response was obscured due to technical artifacts, the 2nd and/or 1st ACh (10 mM) application was considered as control. The peak current amplitude generated in the presence of each test article concentration was then used to calculate the % inhibition as compared to control response (10 mM ACh alone). These estimates were further corrected for vehicle response and run down corrected by normalizing with time matched control responses (10 mM ACh alone). The corrected percentages were then fit with a non-linear function in GraphPad Prism 6 (or later versions) to determine the IC50.
Exclusion criteria: (i) any n's with poor recording quality, (ii) control current amplitude <500 pA or (iii) significant outliers, as determined by the Grubbs test.
ARMs compounds of Formula (I) of the invention were tested for antagonism of the nAChR in the above assay in […] experimental runs and the results are shown in Table 7 below. Antagonistic activity of the compounds of Formula (I) of the invention is reported as an IC50 value (half maximal inhibitory concentration) and the maximum percentage antagonism observed at the highest concentration of compound of Formula (I) tested, as indicated in Table 7. For compounds tested in more than one experimental run, the IC50 value is reported as an average

In assay [2] the test system is CCR2 expressing cells (CD11b+Ly6c+Hi) in peripheral blood. Nature of the assay: In vivo depletion assay, flow cytometry of peripheral blood (Example 201). Also noted: species or system human CCR2 knock-in mice (C57 background). As to conditions: hCCR2 knock-in mice, IV 0.1 mpk compound + 10 mpk anti-cotinine antibody (SEQ ID NO: 13/14), peripheral blood at 48 hr. Here is the method:
Stock solution preparation. Stock solutions of compounds of Formula (I) were prepared at 20 mg/mL and 100 mg/mL in […] for PK/PD and dose tolerability studies respectively. Stock solutions were stored at […] until further usage. on the day of experiment, the stock Solution of the compound of Formula (I) was removed from storage at […] and thawed at room temperature. Anti-cotinine antibody having a heavy chain sequence of SEC ID NO: 13 and a light chain sequence of SEQ ID NO: 14 (rabbit variable region sequence with mouse IgG2a Fc domain), if required was removed from storage at −80° C. and thawed at room temperature. Antibody vials were immediately transferred into wet ice after thawing. Compounds of Formula (I) were further diluted in DMSO as per experimental requirements.
The formulation composition was Saline: DMSI: PBS.
Saline was added based on the quantity required and then stock solution of the compound of Formula (I) prepared in DMSO, followed by addition of antibody in PBS. Formulations were incubated at room temperature for 30 minutes before administration to the mouse. DMSO was used at 1 to % (v/v) in the final formulation.
After bleeding, each mouse was sacrificed by cervical dislocation. […] Flow Cytometry Analysis:
CCR2 depletion in peripheral blood was determined by flow cytometry. Briefly, peripheral blood was collected from all animals at the end of study termination and processed. Blood samples were lysed using 1×RBC Lysis buffer and the resulting cell pellet was washed twice in FACS buffer (HBSS containing 5% FBS). Cells were subjected to Fc blocking using mouse Fc block from Biolegend (Trustain, anti-mouse CD16/32, Cat: 101319) to block non-specific binding followed by surface staining for immune markers (CD45, CD3, CD11 b, Ly6C, human CCR2). Surface staining was done for 30 minutes in ice and cells were washed twice to remove unbound antibodies. Cells were stained with 7AAD to determine viability and acquired on BD FACSVerse flow cytometer. Appropriate FMO controls and single-color controls were included in the experiment for gating and compensation respectively.
Percent depletion of CD11 b+Ly6c+Hi cells and CCR2 expression for the different treatment groups was determined.
For orientation: A flow cytometer gives signals particle by particle.

Assay [3] concerns endogenous target monocytes in human PBMC. Nature of the assay: PBMC ex vivo monocyte depletion flow cytometry assay (Example 200). Format: cell-based. The note with it: with anti-cotinine antibody (SEQ ID NO: 11/12), 18-24 hours, EC50 in molar, read-out: Ex Vivo Depletion Assay pEC50 (converted). Summed up: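 Monocyte depletion is reported as pEC50, averaged or given individually across runs, and read by flow cytometry staining CD45, CD14 and CD4 with a viability dye. Compounds, diluted four-fold over 11 points from 1 mM DMSO stocks, were combined with 30 μg/mL Fc-enhanced anti-cotinine antibody and human PBMC, then incubated 18-24 h at 37° C.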

As usually defined, the IC50 is the concentration needed to halve the response being measured. Read a low IC50 as inhibition by little substance.

Chain of human alpha1 nicotinic acetylcholine (nACh) receptor (P02708 21-457): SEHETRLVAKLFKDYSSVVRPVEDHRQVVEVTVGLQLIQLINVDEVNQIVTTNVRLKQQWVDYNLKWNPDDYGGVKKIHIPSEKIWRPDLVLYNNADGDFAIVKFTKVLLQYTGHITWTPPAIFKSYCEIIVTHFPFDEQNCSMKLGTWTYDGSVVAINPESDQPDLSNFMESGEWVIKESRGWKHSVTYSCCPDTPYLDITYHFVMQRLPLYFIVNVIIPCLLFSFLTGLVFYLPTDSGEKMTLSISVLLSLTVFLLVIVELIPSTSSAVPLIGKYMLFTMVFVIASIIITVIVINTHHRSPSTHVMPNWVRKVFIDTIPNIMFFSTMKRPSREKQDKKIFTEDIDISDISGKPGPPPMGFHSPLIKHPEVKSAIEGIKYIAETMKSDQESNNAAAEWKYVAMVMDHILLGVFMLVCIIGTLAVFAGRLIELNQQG
Chain of human alpha1 nicotinic acetylcholine (nACh) receptor (P11230 24-501 partner): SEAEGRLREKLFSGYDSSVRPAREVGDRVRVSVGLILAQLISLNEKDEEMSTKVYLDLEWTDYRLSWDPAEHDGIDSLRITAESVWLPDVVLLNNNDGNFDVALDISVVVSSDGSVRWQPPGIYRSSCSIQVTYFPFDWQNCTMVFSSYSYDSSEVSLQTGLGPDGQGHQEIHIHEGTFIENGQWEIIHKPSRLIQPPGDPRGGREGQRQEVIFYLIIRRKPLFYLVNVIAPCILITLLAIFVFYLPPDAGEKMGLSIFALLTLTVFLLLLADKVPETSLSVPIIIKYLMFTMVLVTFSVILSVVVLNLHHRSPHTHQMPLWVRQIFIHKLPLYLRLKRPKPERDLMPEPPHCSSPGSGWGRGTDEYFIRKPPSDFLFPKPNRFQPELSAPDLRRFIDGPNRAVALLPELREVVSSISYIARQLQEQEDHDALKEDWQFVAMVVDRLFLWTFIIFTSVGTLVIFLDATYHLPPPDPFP
Chain of human alpha1 nicotinic acetylcholine (nACh) receptor (Q07001 22-517 partner): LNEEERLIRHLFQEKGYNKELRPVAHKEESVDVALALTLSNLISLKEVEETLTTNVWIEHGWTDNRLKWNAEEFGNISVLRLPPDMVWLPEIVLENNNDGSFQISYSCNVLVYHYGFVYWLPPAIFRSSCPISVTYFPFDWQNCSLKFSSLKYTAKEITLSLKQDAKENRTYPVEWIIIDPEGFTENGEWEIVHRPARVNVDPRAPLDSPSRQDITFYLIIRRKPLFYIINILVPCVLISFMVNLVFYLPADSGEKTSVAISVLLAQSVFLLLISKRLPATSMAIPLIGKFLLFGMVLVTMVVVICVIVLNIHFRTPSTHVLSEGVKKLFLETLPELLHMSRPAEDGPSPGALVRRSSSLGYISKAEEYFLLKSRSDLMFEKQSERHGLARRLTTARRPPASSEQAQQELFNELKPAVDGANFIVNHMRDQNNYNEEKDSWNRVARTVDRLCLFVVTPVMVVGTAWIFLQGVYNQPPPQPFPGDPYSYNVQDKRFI

For `CC(C)N(C)[C@@H]1CC[C@H](N2CC[C@H](Nc3ncnc4ccc(C(F)(F)F)cc34)C2=O)[C@H](NC(=O)[C@H]2C[C@@H](NC(=O)CCCO[C@H]3CC[C@H](OCCNC(=O)[C@H]4CC(=O)N(C)[C@@H]4c4cccnc4)CC3)C2)C1` [Example 9, (2S,3S)-N-(2-(((1S,4S)-4-(4-(((1S,3S)-3-(((1R,2S,5R)-5-(Isopropyl(methyl)amino)-2-((S)-2-oxo-3-((6-(trifluoromethyl)quinazolin-4-yl)amino)pyrrolidin-1-yl)cyclohexyl)carbamoyl)cyclobutyl)amino)-4-oxobutoxy)cyclohexyl)oxy)ethyl)-1-methyl-5-oxo-2-(pyridin-3-yl)pyrrolidine-3-carboxamide], in assay [1] (antagonism of ACh-stimulated human alpha1 nAChR current, patch clamp), the IC50 was determined as 82000 nM. In addition, the Emax at 100 µM in assay [1] (maximum percentage antagonism at maximum concentration tested 100 μM, read-out: Maximum Response) worked out at 53.9%.

On to `CN1C(=O)C[C@H](C(=O)NCCOCCOCCOCCOCCOCCOCCOCCOCCC(=O)N[C@@H]2C[C@H](NC(C)(C)C)CC[C@@H]2N2CC[C@H](Nc3ncnc4ccc(C(F)(F)F)cc34)C2=O)[C@H]1c1cccnc1` [Example 36, (2S,3S)-N-(27-(((1R,2S,5R)-5-(tert-Butylamino)-2-((S)-2-oxo-3-((6-(trifluoromethyl)quinazolin-4-yl)amino)pyrrolidin-1-yl)cyclohexyl)amino)-27-oxo-3,6,9,12,15,18,21,24-octaoxaheptacosyl)-1-methyl-5-oxo-2-(pyridin-3-yl)pyrrolidine-3-carboxamide], for which the “% Depletion of CCR2 expressing cells” value in assay [2] was 83.33%.

As to `CC(C)(C)N[C@@H]1CC[C@H](N2CC[C@H](Nc3ncnc4ccc(C(F)(F)F)cc34)C2=O)[C@H](NC(=O)[C@H]2CC[C@H](NC(=O)CCCO[C@H]3CC[C@H](OCCNC(=O)[C@H]4CC(=O)N(C5CCC5)[C@@H]4c4cccnc4)CC3)CC2)C1` [Example 15, (2S,3S)-N-(2-(((1R,4S)-4-(4-(((1R,4R)-4-(((1R,2S,5R)-5-(tert-butylamino)-2-((S)-2-oxo-3-((6-(trifluoromethyl)quinazolin-4-yl)amino)pyrrolidin-1-yl)cyclohexyl)carbamoyl)cyclohexyl)amino)-4-oxobutoxy)cyclohexyl)oxy)ethyl)-1-cyclobutyl-5-oxo-2-(pyridin-3-yl)pyrrolidine-3-carboxamide], the “% Depletion of CCR2 expressing cells” value in assay [2] worked out at 92.6%.

With `CC(C)N(C)[C@@H]1CC[C@H](N2CC[C@H](Nc3ncnc4ccc(C(F)(F)F)cc34)C2=O)[C@H](NC(=O)c2cc(OCCOCCOCCOCCOCCNC(=O)[C@H]3CC(=O)N(C)[C@@H]3c3cccnc3)ccn2)C1` [Example 88, N-((1R,2S,5R)-5-(Isopropyl(methyl)amino)-2-((S)-2-oxo-3-((6-(trifluoromethyl)quinazolin-4-yl)amino)pyrrolidin-1-yl)cyclohexyl)-4-((1-((2S,3S)-1-methyl-5-oxo-2-(pyridin-3-yl)pyrrolidin-3-yl)-1-oxo-5,8,11,14-tetraoxa-2-azahexadecan-16-yl)oxy)picolinamide], the EC50 in assay [3] was 7.94 nM.

Regarding `CC(C)N(C)[C@@H]1CC[C@H](N2CC[C@H](Nc3ncnc4ccc(C(F)(F)F)cc34)C2=O)[C@H](NC(=O)c2cc(NCCOCCOCCOCCOCCNC(=O)[C@H]3CC(=O)N(C)[C@@H]3c3cccnc3)ncn2)C1` [Example 127, N-((1R,2S,5R)-5-(Isopropyl(methyl)amino)-2-((S)-2-oxo-3-((6-(trifluoromethyl)quinazolin-4-yl)amino)pyrrolidin-1-yl)cyclohexyl)-6-((1-((2S,3S)-1-methyl-5-oxo-2-(pyridin-3-yl)pyrrolidin-3-yl)-1-oxo-5,8,11, 14-tetraoxa-2-azahexadecan-16-yl)amino) pyrimidine-4-carboxamide], in assay [3], the EC50 is 2 nM.

On to `CC(C)N(C)[C@@H]1CC[C@H](N2CC[C@H](Nc3ncnc4ccc(C(F)(F)F)cc34)C2=O)[C@H](NC(=O)[C@H]2C[C@H](NC(=O)CCO[C@H]3CC[C@@H](OCCNC(=O)[C@H]4CC(=O)N(C)[C@@H]4c4cccnc4)CC3)C2)C1` [Example 116, (2S,3S)-N-(2-(((1S,4R)-4-(3-(((1R,3R)-3-(((1R,2S,5R)-5-(Isopropyl(methyl)amino)-2-((S)-2-oxo-3-((6-(trifluoromethyl)quinazolin-4-yl)amino)pyrrolidin-1-yl)cyclohexyl)carbamoyl)cyclobutyl)amino)-3-oxopropoxy)cyclohexyl)oxy)ethyl)-1-methyl-5-oxo-2-(pyridin-3-yl)pyrrolidine-3-carboxamide], for which the EC50 in assay [3] was 0.0398 nM.

Consider `CN1C(=O)C[C@H](C(=O)NCCOCC(=O)NCCOCCC(=O)NCCOCCC(=O)N[C@@H]2C[C@H](NC(C)(C)C)CC[C@@H]2N2CC[C@H](Nc3ncnc4ccc(C(F)(F)F)cc34)C2=O)[C@H]1c1cccnc1` [Example 106, (2S,3S)-N-(19-(((1R,2S,5R)-5-(tert-Butylamino)-2-((S)-2-oxo-3-((6-(trifluoromethyl)quinazolin-4-yl)amino)pyrrolidin-1-yl)cyclohexyl)amino)-5,12,19-trioxo-3,9, 16-trioxa-6, 13-diazanonadecyl)-1-methyl-5-oxo-2-(pyridin-3-yl)pyrrolidine-3-carboxamide], for which the EC50 in assay [3] is 0.794 nM.

Take `CC(C)N(C)[C@@H]1CC[C@H](N2CC[C@H](Nc3ncnc4ccc(C(F)(F)F)cc34)C2=O)[C@H](NC(=O)[C@H]2CC[C@@H](NC(=O)CCOCCCOCCCNC(=O)[C@H]3CC(=O)N(C)[C@@H]3c3cccnc3)CC2)C1` [Example 197, (2S,3S)-N-(3-(3-(3-(((1S,4s)-4-(((1R,2S,5R)-5-(Isopropyl(methyl)amino)-2-((S)-2-oxo-3-((6-(trifluoromethyl)quinazolin-4-yl)amino)pyrrolidin-1-yl)cyclohexyl)carbamoyl)cyclohexyl)amino)-3-oxopropoxy)propoxy)propyl)-1-methyl-5-oxo-2-(pyridin-3-yl)pyrrolidine-3-carboxamide]: the EC50 in assay [3] was 1 nM.

As to `CC(C)N(C)[C@@H]1CC[C@H](N2CC[C@H](Nc3ncnc4ccc(C(F)(F)F)cc34)C2=O)[C@H](NC(=O)CCCCCCCCNCCOCCOCCOCCOCCNC(=O)[C@H]2CC(=O)N(C)[C@@H]2c2cccnc2)C1` [Example 195, (2S,3S)-N-(24-(((1R,2S,5R)-5-(Isopropyl(methyl)amino)-2-((S)-2-oxo-3-((6-(trifluoromethyl)quinazolin-4-yl)amino)pyrrolidin-1-yl)cyclohexyl)amino)-24-oxo-3,6,9,12-tetraoxa-15-azatetracosyl)-1-methyl-5-oxo-2-(pyridin-3-yl)pyrrolidine-3-carboxamide, 3Trifluoroacetic acid salt], the EC50 in assay [3] is 0.316 nM.
